Numbers after ± are expanded uncertainties.
Key:
[1] = refractive index (Na D-line) (dimensionless); settings: 298.15 K; 101.33 kPa; Liquid; Standard Abbe refractometry
[2] = 81.5 kPa, Liquid; for viscosity: Capillary tube (Ostwald / Ubbelohde) method
[3] = xn = mol fraction of the nth substance listed; settings: 81.5 kPa, Liquid; for viscosity: Capillary tube (Ostwald / Ubbelohde) method
[4] = refractive index (Na D-line) (dimensionless); xn = mol fraction of the nth substance listed; settings: 303.15 K, 81.5 kPa, Liquid

CC(O)CO (stereo not drawn) [1,2-propanediol]
Settings | refractive index
[1] | 1.4323 ± 0.0007

[2]
Settings | mass density [kg/m3] | viscosity [mPa·s]
298.15 K | 1032.61 ± 0.24 | –
303.15 K | 1028.9 ± 0.23 | 33.88 ± 0.58
308.15 K | 1025.16 ± 0.23 | –

CC(O)CO (stereo not drawn) [1,2-propanediol] + CCO
[3]
Settings | mass density, 298.15 K [kg/m3] | mass density, 303.15 K [kg/m3] | mass density, 308.15 K [kg/m3] | viscosity, 303.15 K [mPa·s]
x2 = 0.0492 | 1023.64 ± 0.22 | 1019.91 ± 0.21 | 1016.16 ± 0.21 | –
x2 = 0.0738 | – | – | – | 25.01 ± 0.37
x2 = 0.122 | 1009.9 ± 0.19 | 1006.14 ± 0.19 | 1002.31 ± 0.18 | –
x2 = 0.1285 | – | – | – | 20.47 ± 0.28
x2 = 0.2072 | 993.05 ± 0.18 | 989.22 ± 0.19 | 985.36 ± 0.19 | –
x2 = 0.2099 | – | – | – | 15.2 ± 0.18
x2 = 0.2706 | 979.89 ± 0.2 | 976.03 ± 0.2 | 972.12 ± 0.21 | –
x2 = 0.2725 | – | – | – | 12.14 ± 0.13
x2 = 0.3633 | 959.86 ± 0.22 | 955.92 ± 0.22 | 951.97 ± 0.23 | –
x2 = 0.3701 | – | – | – | 8.55 ± 0.08
x2 = 0.4389 | – | – | – | 6.68 ± 0.06
x2 = 0.4478 | 940.7 ± 0.24 | 936.73 ± 0.25 | 932.7 ± 0.25 | –
x2 = 0.5193 | – | – | – | 5.03 ± 0.04
x2 = 0.5261 | 921.85 ± 0.27 | 917.81 ± 0.27 | 913.76 ± 0.28 | –
x2 = 0.5871 | – | – | – | 3.98 ± 0.03
x2 = 0.6103 | 900.63 ± 0.29 | 896.55 ± 0.3 | 892.41 ± 0.31 | –
x2 = 0.677 | 882.99 ± 0.32 | 878.84 ± 0.32 | 874.69 ± 0.33 | –
x2 = 0.678 | – | – | – | 2.9 ± 0.02
x2 = 0.7554 | – | – | – | 2.23 ± 0.02
x2 = 0.7613 | 859.54 ± 0.35 | 855.37 ± 0.35 | 851.13 ± 0.36 | –
x2 = 0.8185 | – | – | – | 1.8 ± 0.01
x2 = 0.8332 | 838.49 ± 0.38 | 834.25 ± 0.38 | 829.99 ± 0.39 | –
x2 = 0.9171 | – | – | – | 1.29 ± 0.01
x2 = 0.9232 | 810.57 ± 0.42 | 806.3 ± 0.42 | 801.98 ± 0.43 | –

[4]
Settings | refractive index
x2 = 0.0738 | 1.426 ± 0.0008
x2 = 0.1285 | 1.4233 ± 0.0008
x2 = 0.2099 | 1.4187 ± 0.0008
x2 = 0.2725 | 1.4153 ± 0.0008
x2 = 0.3701 | 1.4093 ± 0.0008
x2 = 0.4389 | 1.4052 ± 0.0008
x2 = 0.5193 | 1.3998 ± 0.0008
x2 = 0.5871 | 1.3946 ± 0.0008
x2 = 0.678 | 1.3876 ± 0.0008
x2 = 0.7554 | 1.3817 ± 0.0008
x2 = 0.8185 | 1.3765 ± 0.0008
x2 = 0.9171 | 1.3672 ± 0.0008

CC(O)CO (stereo not drawn) [1,2-propanediol] + CO
[3]
Settings | mass density, 298.15 K [kg/m3] | mass density, 303.15 K [kg/m3] | mass density, 308.15 K [kg/m3] | viscosity, 303.15 K [mPa·s]
x2 = 0 | 1032.61 ± 0.24 | 1028.9 ± 0.23 | 1025.16 ± 0.23 | –
x2 = 0.0533 | 1026.26 ± 0.22 | 1022.52 ± 0.22 | 1018.75 ± 0.21 | –
x2 = 0.0688 | – | – | – | 25.51 ± 0.38
x2 = 0.1319 | 1016.21 ± 0.2 | 1012.45 ± 0.2 | 1008.64 ± 0.19 | –
x2 = 0.1545 | – | – | – | 18.49 ± 0.24
x2 = 0.2246 | 1003.13 ± 0.18 | 999.31 ± 0.17 | 995.47 ± 0.18 | –
x2 = 0.2606 | – | – | – | 12.31 ± 0.14
x2 = 0.282 | 994.24 ± 0.17 | 990.39 ± 0.18 | 986.48 ± 0.19 | –
x2 = 0.3086 | – | – | – | 10.21 ± 0.11
x2 = 0.3666 | – | – | – | 8.11 ± 0.08
x2 = 0.3841 | 976.76 ± 0.19 | 972.84 ± 0.2 | 968.91 ± 0.21 | –
x2 = 0.4494 | – | – | – | 5.81 ± 0.05
x2 = 0.4496 | 964.21 ± 0.21 | 960.26 ± 0.21 | 956.25 ± 0.22 | –
x2 = 0.51 | – | – | – | 4.54 ± 0.04
x2 = 0.53 | 947.16 ± 0.23 | 943.12 ± 0.24 | 939.07 ± 0.24 | –
x2 = 0.6083 | 928.51 ± 0.25 | 924.41 ± 0.26 | 920.25 ± 0.27 | –
x2 = 0.6098 | – | – | – | 2.99 ± 0.02
x2 = 0.6811 | – | – | – | 2.21 ± 0.02
x2 = 0.7006 | 903.39 ± 0.29 | 899.17 ± 0.29 | 894.96 ± 0.3 | –
x2 = 0.7601 | 884.96 ± 0.31 | 880.67 ± 0.32 | 876.35 ± 0.33 | –
x2 = 0.7687 | – | – | – | 1.51 ± 0.01
x2 = 0.8363 | – | – | – | 1.11 ± 0.01
x2 = 0.8454 | 855.03 ± 0.35 | 850.61 ± 0.36 | 846.16 ± 0.37 | –
x2 = 0.9133 | 827.35 ± 0.39 | 823.02 ± 0.4 | 818.45 ± 0.41 | –
x2 = 0.9225 | – | – | – | 0.75 ± 0.01

[4]
Settings | refractive index
x2 = 0.0688 | 1.4262 ± 0.0008
x2 = 0.1545 | 1.422 ± 0.0008
x2 = 0.2606 | 1.4155 ± 0.0008
x2 = 0.3086 | 1.4129 ± 0.0008
x2 = 0.3666 | 1.4096 ± 0.0008
x2 = 0.4494 | 1.4029 ± 0.0008
x2 = 0.51 | 1.3983 ± 0.0008
x2 = 0.6098 | 1.3883 ± 0.0008
x2 = 0.6811 | 1.3783 ± 0.0008
x2 = 0.7687 | 1.3665 ± 0.0008
x2 = 0.8363 | 1.3571 ± 0.0008
x2 = 0.9225 | 1.3404 ± 0.0008

CCO [ethanol]
Settings | refractive index
[1] | 1.3595 ± 0.0007

[2]
Settings | mass density [kg/m3] | viscosity [mPa·s]
298.15 K | 785.18 ± 0.45 | –
303.15 K | 780.87 ± 0.46 | 0.994 ± 0.009
308.15 K | 776.52 ± 0.47 | –

CCO [ethanol] + CC(O)CO
[3], x1 = 1
Settings | mass density [kg/m3]
298.15 K | 785.18 ± 0.45
303.15 K | 780.87 ± 0.46
308.15 K | 776.52 ± 0.47

CO [methanol]
Settings | refractive index
[1] | 1.327 ± 0.0007

[2]
Settings | mass density [kg/m3] | viscosity [mPa·s]
298.15 K | 786.57 ± 0.45 | –
303.15 K | 781.85 ± 0.46 | 0.525 ± 0.007
308.15 K | 777.1 ± 0.47 | –

CO [methanol] + CC(O)CO
[3], x1 = 1
Settings | mass density [kg/m3]
298.15 K | 786.57 ± 0.45
303.15 K | 781.85 ± 0.46
308.15 K | 777.1 ± 0.47

CO [methanol] + CCO
[3], 303.15 K
Settings | viscosity [mPa·s]
x1 = 0.0417 | 0.968 ± 0.009
x1 = 0.1476 | 0.906 ± 0.008
x1 = 0.2214 | 0.865 ± 0.008
x1 = 0.2952 | 0.828 ± 0.008
x1 = 0.3644 | 0.793 ± 0.008
x1 = 0.4488 | 0.753 ± 0.008
x1 = 0.529 | 0.717 ± 0.008
x1 = 0.5995 | 0.685 ± 0.007
x1 = 0.6859 | 0.648 ± 0.007
x1 = 0.7442 | 0.624 ± 0.007
x1 = 0.832 | 0.588 ± 0.007
x1 = 0.9166 | 0.556 ± 0.007

[4]
Settings | refractive index
x1 = 0.0417 | 1.3567 ± 0.0008
x1 = 0.1476 | 1.3541 ± 0.0008
x1 = 0.2214 | 1.3522 ± 0.0008
x1 = 0.2952 | 1.3502 ± 0.0008
x1 = 0.3644 | 1.3485 ± 0.0008
x1 = 0.4488 | 1.3462 ± 0.0008
x1 = 0.529 | 1.3437 ± 0.0008
x1 = 0.5995 | 1.3415 ± 0.0008
x1 = 0.6859 | 1.3385 ± 0.0008
x1 = 0.7442 | 1.3363 ± 0.0008
x1 = 0.832 | 1.3328 ± 0.0008
x1 = 0.9166 | 1.3286 ± 0.0008

Reference: the NIST ThermoML archive (doi:10.1021/je800633a)
